Here are results for seven compounds from ChEMBL document CHEMBL2150902, “Novel AI-2 quorum sensing inhibitors in Vibrio harveyi identified through structure-based virtual screening” (Bioorg Med Chem Lett, 2012).

SMILES strings stand for the structures.

A short description of data set [1]: Inhibition of LuxP/LuxQ mediated AI2-dependent quorum sensing in Vibrio harveyi MM32 incubated for 4 to 6 hrs measured every 30 mins by luminescence assay.
The test system of data set [2] is Vibrio harveyi. The experiment in a line: Growth inhibition of Vibrio harveyi MM32 by spectrophotometry. Format: organism-based. The conditions noted are these: in vivo.

Turning to `CSc1nccc(Oc2ccccc2Cl)n1`, in data set [1], the IC50 worked out at 3.42 µM. Also, the “growth inhibition (GI)” value in data set [2] is given as “Non-toxic”.
The corresponding values for `C=CCOC(=O)C1=CS(=O)(=O)c2ccccc21` are 3.06 µM and “Toxic”.
Compound `O=C(O)c1ccc(-c2c(Cl)cc([N+](=O)[O-])cc2Cl)o1` came in with an IC50 in data set [1] of 40.1 µM. Moreover, the “growth inhibition (GI)” value in data set [2] is on record as “Non-toxic”.
As for `Cn1cnnc1SCC(=O)Nc1nc2ccccc2s1`, the concentration for half-maximal inhibition (IC50) in data set [1] was determined as 5.51 µM. The “growth inhibition (GI)” value in data set [2] is listed as “Non-toxic”.
`CSC1=CS(=O)(=O)c2ccccc21`: half-maximal inhibition in data set [1] (IC50) was put at 41 µM. Also, in data set [2], the “growth inhibition (GI)” value is recorded as “Toxic”.
On to `Cc1cc(=O)n2nc(N)c(/N=N/c3ccccc3)c2[nH]1`, for which the IC50 in data set [1] is 19.8 µM. Moreover, the “growth inhibition (GI)” value in data set [2] is “Toxic”.
The corresponding values for `Fc1ccccc1-c1ccc(CNCc2ccco2)o1` are 14.8 µM and “Toxic”.

What is called IC50 is the concentration that gives 50% inhibition. A low value points to inhibition by little substance.
